The assay has as its system RLE-6TN cells. Briefly: RLE-6TN cell survival under hyperoxia, viable cells by trypan blue exclusion. Format: cell-based, rat. How it is done:
FIG. 7. […] The cells were cultured in DMEM/F12 with 10% FBS in 21% O2 and 5% CO2 overnight. […] The viable cells are counted immediately after 72-hour hyperoxia exposure. Cell viability is assessed with trypan blue. Viable cells under specific conditions are presented as a percentage of the cell number from hyperoxia alone. Data are mean±s.d. of four independent experiments with *=P<0.05; **=P<0.01.
FIG. 8. […] In both (A) and (B), the number of viable cells under specific conditions is presented as a percentage of the cell number related to hyperoxia alone in the same experiment. Data are mean±s.d. of four independent experiments with *=P<0.05; **=P<0.01.
FIG. 10. HO-1 Upregulation is required for T3-increased RLE-6TN cell survival in hyperoxia. […] The cells were then collected for Western Blot analysis. (B) The cells were incubated in 21% O2 and 5% CO2 for 72 hours in the present of HO-1 inhibitor Tin Protoporphyrin IX(10^−6 M) tinT3 (10^−6 M). […] Cell viability is assessed with trypan blue. The number of viable cells under specific conditions is presented as a percentage of the cell number related to hyperoxia alone. Data are mean±s.d. of three independent experiments with *=P<0.05; **=P<0.01.
FIG. 11. PI3K inhibitor wortmannin blocked T3-induced cell survival in hyperoxia. […] Cell viability is assessed with trypan blue. The number of viable cells under specific conditions is presented as a percentage of the cell number related to hyperoxia alone. Data are mean±s.d. of four independent experiments with *=P<0.05; **=P<0.01.
At the end of the hyperoxia exposure period, the viable cells were counted by trypan blue dye exclusion.

With `C=Cc1c2[n-]c(c1C)/C=c1\[n-]/c(c(C)c1C=C)=C\c1[n-]c(c(CCC(=O)O)c1C)C=c1[n-]/c(c(C)c1CCC(=O)O)=C\2.[Sn+4]` [Tin protoporphyrin, Tin Protoporphyrin IX], for the setting “21% O2 72 hours, 10^−6 M”, the “Effect on AT2 cell number in room air” value is reported as “had no effect on AT2 cell number in room air”. Moreover, for the setting “90% O2 72 hours, T3 10^−6 M, Tin Protoporphyrin 10^−6 M”, the “Effect on T3-caused increase in cell survival in hyperoxia” value is “blocked the T3-caused increase in cell survival and augmented cell death”. Turning to `N[C@@H](Cc1ccc(Oc2cc(I)c(O)c(I)c2)c(I)c1)C(=O)O` [rT3], the “Effect on cell survival under hyperoxia” value (90% oxygen 72 hours, 10^−6 M) is given as “had no role in cell survival”.
